Patent publication US6737383B1, “Herbicidal oxadiazolidines” (priority 1999, dated 2004)

Tests used:
bedstraw = test: Test B pre/postemergence bedstraw; assay type: in vivo, Galium aparine
Outline: (§1)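 Response is a visual 0-to-10 score relative to untreated plants, where 0 means no effect and 10 means complete control, taken twelve to sixteen days after application. Treatments went onto soil at planting and onto foliage of 1- to 4-leaf plants, using a surfactant-containing non-phytotoxic solvent.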

blackgrass = test: Test B pre/postemergence blackgrass; assay type: in vivo, Alopecurus myosuroides
Outline: as §1

surinam grass = test: Test B pre/postemergence surinam grass; assay type: in vivo, Brachiaria decumbens
Outline: as §1

smallflower flatsedge = test: Test B flood test smallflower flatsedge; assay type: in vivo, Cyperus difformis; settings: for Plant response rating, S. Flatsedge (0 to 10 scale, 0 is no effect, 10 is complete control) / S. Flatsedge plant response rating (0 to 10 scale, 0 is no effect, 10 is complete control): visual evaluation after twelve to sixteen days; for S. Flatsedge plant response rating (0 to 10 scale, 0 is no effect, 10 is complete control): under heading Pre-emergence
Outline: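 Plants were grown to the 2-leaf stage before treatment with test chemical, then held in a greenhouse for twelve to sixteen days. Injury was visually rated against untreated controls on a 0–10 scale, where 0 is no effect and 10 is complete control.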

[1] = Postemergence, Rate 250 g/ha, scale 0 to 10
[2] = Postemergence, Rate 500 g/ha, scale of 0 to 10 where 0 is no effect and 10 is complete control
[3] = Rate 125 g/ha, Postemergence, scale 0 to 10, 0 is no effect, 10 is complete control
[4] = Preemergence, Rate 62 g/ha, scale 0 to 10 (0 no effect, 10 complete control)
[5] = Preemergence, Rate 125 g/ha, scale of 0 to 10 where 0 is no effect and 10 is complete control
[6] = Preemergence, Rate 250 g/ha, scale 0 to 10, 0 is no effect, 10 is complete control
[7] = Preemergence, Rate 500 g/ha, scale 0 to 10, 0 is no effect, 10 is complete control
[8] = Rate 62 g/ha, Postemergence, scale of 0 to 10 where 0 is no effect and 10 is complete control
[9] = Postemergence, Rate 250 g/ha, scale 0 to 10, 0 no effect, 10 complete control
[10] = Postemergence, Rate 125 g/ha, scale of 0 to 10 where 0 is no effect and 10 is complete control
[11] = Preemergence, Rate 62 g/ha, scale of 0 to 10 where 0 is no effect and 10 is complete control
[12] = Preemergence, Rate 125 g/ha, 0 is no effect, 10 is complete control
[13] = Preemergence, Rate 500 g/ha, scale 0 to 10 (0 no effect, 10 complete control)
[14] = Rate 250 g/ha, Postemergence, scale 0 to 10, 0 is no effect, 10 is complete control
[15] = Rate 500 g/ha, Postemergence, scale 0 to 10
[16] = Rate 500 g/ha, Postemergence, scale 0 to 10, 0 no effect, 10 complete control
[17] = Preemergence, Rate 250 g/ha, scale of 0 to 10 where 0 is no effect and 10 is complete control
[18] = Preemergence, Rate 500 g/ha, scale of 0 to 10 where 0 is no effect and 10 is complete control
[19] = Rate 125 g/ha, Postemergence, scale 0 to 10
[20] = Rate 125 g/ha, Preemergence, scale of 0 to 10 where 0 is no effect and 10 is complete control
[21] = Rate 250 g/ha, Pre-emergence, flood-test species, scale 0 to 10, 0 is no effect, 10 is complete control
[22] = Rate 500 g/ha, Pre-emergence, flood test species, scale 0 to 10 (0 no effect, 10 complete control)
[23] = Rate 62 g/ha, Postemergence, scale 0 to 10, 0 no effect, 10 complete control
[24] = Rate 62 g/ha, flood test species, Pre-emergence
[25] = Rate 125 g/ha, flood test species
[26] = Rate 250 g/ha, Pre-emergence (flood test species), scale 0 to 10, 0 is no effect, 10 is complete control
[27] = Postemergence, Rate 62 g/ha, scale 0 to 10, 0 is no effect, 10 is complete control
[28] = Postemergence, Rate 250 g/ha, scale of 0 to 10, 0 is no effect, 10 is complete control
[29] = Preemergence, Rate 250 g/ha, scale 0 to 10 (0 no effect, 10 complete control)
[30] = Rate 500 g/ha, Postemergence, scale 0 to 10, 0 is no effect, 10 is complete control
[31] = Postemergence, Rate 250 g/ha, scale 0 to 10, 0 is no effect, 10 is complete control

## CC(C)N(C(=O)n1oc(=O)n(CCC#N)c1=O)c1ccc(F)cc1F [Compound 433]
bedstraw; [1]
  Bedstraw plant response rating: 5
bedstraw; [2]
  Bedstraw plant response rating: 7
bedstraw; [3]
  Bedstraw plant response rating: 2
blackgrass; [1]
  Blackgrass plant response rating: 7
blackgrass; [2]
  Blackgrass plant response rating: 10
blackgrass; [4]
  Plant response rating, Blackgrass: 2
blackgrass; [5]
  Plant response rating, Blackgrass: 2
blackgrass; [6]
  Blackgrass plant response rating: 3
blackgrass; [7]
  Blackgrass plant response rating: 9
blackgrass; [8]
  Blackgrass plant response rating: 2
blackgrass; [3]
  Blackgrass plant response rating: 5
Surinam grass; [9]
  B. signalgrass plant response rating: 3
Surinam grass; [2]
  B. signalgrass plant response rating: 6
Surinam grass; [4]
  Plant response rating, B. signalgrass: 2
Surinam grass; [5]
  Plant response rating, B. signalgrass: 2
Surinam grass; [6]
  B. signalgrass plant response rating: 2
Surinam grass; [7]
  B. signalgrass plant response rating: 6
Surinam grass; [8]
  B. signalgrass plant response rating: 0
Surinam grass; [3]
  B. signalgrass plant response rating: 1
Smallflower flatsedge; Postemergence block (flood test species), Rate 250 g/ha, scale 0 to 10
  S. Flatsedge plant response rating: 0
Smallflower flatsedge; Postemergence section (flood test species), Rate 500 g/ha, scale of 0 to 10 where 0 is no effect and 10 is complete control
  S. Flatsedge plant response rating: 0
Smallflower flatsedge; Rate 125 g/ha, Postemergence section (flood test species), scale 0 to 10, 0 is no effect, 10 is complete control
  S. Flatsedge plant response rating: 0

## CC(C)N(C(=O)n1oc(=O)n(-c2nc(Cl)sc2Cl)c1=O)c1ccc(F)cc1 [Compound 160]
bedstraw; [10]
  Bedstraw plant response rating: 0
bedstraw; [11]
  Bedstraw plant response rating: 0
bedstraw; [12]
  Bedstraw plant response rating (0 to 10 scale): 0
bedstraw; [6]
  Bedstraw plant response rating: 0
bedstraw; [13]
  Bedstraw plant response rating: 0
bedstraw; [8]
  Bedstraw plant response rating: 0
bedstraw; [14]
  Plant response rating, Bedstraw: 0
bedstraw; [15]
  Bedstraw plant response rating: 0
blackgrass; [10]
  Blackgrass plant response rating: 0
blackgrass; [11]
  Blackgrass plant response rating: 0
blackgrass; [12]
  Blackgrass plant response rating (0 to 10 scale): 0
blackgrass; [6]
  Blackgrass plant response rating: 0
blackgrass; [13]
  Blackgrass plant response rating: 0
blackgrass; [8]
  Blackgrass plant response rating: 0
blackgrass; [14]
  Plant response rating, Blackgrass: 0
blackgrass; [15]
  Blackgrass plant response rating: 0
Surinam grass; [10]
  B. signalgrass plant response rating: 0
Surinam grass; [11]
  B. signalgrass plant response rating: 0
Surinam grass; [12]
  B. signalgrass plant response rating (0 to 10 scale): 0
Surinam grass; [6]
  B. signalgrass plant response rating: 0
Surinam grass; [13]
  B. signalgrass plant response rating: 0
Surinam grass; [8]
  B. signalgrass plant response rating: 0
Surinam grass; [14]
  Plant response rating, B. signalgrass: 0
Surinam grass; [16]
  B. signalgrass plant response rating: 0
Smallflower flatsedge; Postemergence (flood test species), Rate 125 g/ha, scale of 0 to 10 where 0 is no effect and 10 is complete control
  S. Flatsedge plant response rating: 0
Smallflower flatsedge; Rate 62 g/ha, Postemergence section, flood test species, scale of 0 to 10 where 0 is no effect and 10 is complete control
  S. Flatsedge plant response rating: 0
Smallflower flatsedge; Rate 250 g/ha, Postemergence (flood test), scale 0 to 10, 0 is no effect, 10 is complete control
  Plant response rating, S. Flatsedge: 0
Smallflower flatsedge; Rate 500 g/ha, listed under Postemergence (flood test species), scale 0 to 10
  S. Flatsedge plant response rating: 0

## CCC(C)N(C(=O)n1oc(=O)n(-c2ccccc2C)c1=O)c1ccc(F)cc1 (centres unmarked) [Compound 239]
bedstraw; [11]
  Bedstraw plant response rating: 0
bedstraw; [17]
  Bedstraw plant response rating: 0
bedstraw; [18]
  Plant response rating, Bedstraw: 0
bedstraw; [8]
  Bedstraw plant response rating: 0
bedstraw; [19]
  Bedstraw plant response rating: 3
bedstraw; [20]
  Bedstraw plant response rating: 0
bedstraw; Rate 250 g/ha, Postemergence
  Plant response rating (0 to 10; 0 is no effect, 10 is complete control), Bedstraw: 3
bedstraw; [16]
  Bedstraw plant response rating: 3
blackgrass; [11]
  Blackgrass plant response rating: 0
blackgrass; [17]
  Blackgrass plant response rating: 4
blackgrass; [18]
  Plant response rating, Blackgrass: 4
blackgrass; [8]
  Blackgrass plant response rating: 0
blackgrass; [19]
  Blackgrass plant response rating: 0
blackgrass; [20]
  Blackgrass plant response rating: 3
blackgrass; Rate 250 g/ha, Postemergence
  Plant response rating (0 to 10; 0 is no effect, 10 is complete control), Blackgrass: 2
blackgrass; [16]
  Blackgrass plant response rating: 3
Surinam grass; [11]
  B. signalgrass plant response rating: 0
Surinam grass; [6]
  B. signalgrass plant response rating: 4
Surinam grass; [18]
  Plant response rating, B. signalgrass: 5
Surinam grass; [8]
  B. signalgrass plant response rating: 0
Surinam grass; Rate 125 g/ha, Postemergence, scale 0 (no effect) to 10 (complete control)
  B. signalgrass plant response rating: 0
Surinam grass; [20]
  B. signalgrass plant response rating: 0
Surinam grass; Rate 250 g/ha, Postemergence
  Plant response rating (0 to 10; 0 is no effect, 10 is complete control), B. signalgrass: 0
Surinam grass; [16]
  B. signalgrass plant response rating: 0
Smallflower flatsedge; Rate 62 g/ha, headed Pre-emergence (flood test species), scale 0 to 10 (0 no effect, 10 complete control)
  S. Flatsedge plant response rating: 0
Smallflower flatsedge; Rate 125 g/ha, Pre-emergence, flood test species, scale 0 to 10 where 0 is no effect and 10 is complete control
  S. Flatsedge plant response rating: 0
Smallflower flatsedge; [21]
  S. Flatsedge plant response rating: 0
Smallflower flatsedge; [22]
  S. Flatsedge plant response rating: 0

## CC(C)N(C(=O)n1oc(=O)n(C(C)C#N)c1=O)c1ccc(Cl)cc1 (centres unmarked) [Compound 451]
bedstraw; [23]
  Bedstraw plant response rating: 0
bedstraw; [3]
  Bedstraw plant response rating: 0
blackgrass; [1]
  Blackgrass plant response rating: 2
blackgrass; [2]
  Blackgrass plant response rating: 6
blackgrass; [11]
  Plant response rating, Blackgrass: 0
blackgrass; [5]
  Plant response rating, Blackgrass: 0
blackgrass; [6]
  Blackgrass plant response rating: 0
blackgrass; [7]
  Blackgrass plant response rating: 0
blackgrass; [23]
  Blackgrass plant response rating: 0
blackgrass; [3]
  Blackgrass plant response rating: 0
Surinam grass; [9]
  B. signalgrass plant response rating: 0
Surinam grass; [2]
  B. signalgrass plant response rating: 2
Surinam grass; [11]
  Plant response rating, B. signalgrass: 0
Surinam grass; [5]
  Plant response rating, B. signalgrass: 0
Surinam grass; [6]
  B. signalgrass plant response rating: 0
Surinam grass; [7]
  B. signalgrass plant response rating: 0
Surinam grass; [23]
  B. signalgrass plant response rating: 0
Surinam grass; [3]
  B. signalgrass plant response rating: 0
Smallflower flatsedge; [24]
  Plant response rating, S. Flatsedge (0 to 10 scale, 0 is no effect, 10 is complete control): 0
Smallflower flatsedge; [25]
  S. Flatsedge plant response rating (0 to 10 scale, 0 is no effect, 10 is complete control): 0
Smallflower flatsedge; [26]
  S. Flatsedge plant response rating: 0
Smallflower flatsedge; [22]
  S. Flatsedge plant response rating: 0

## CC[C@@H](C)n1c(=O)on(C(=O)N(c2ccc(F)cc2F)C(C)C)c1=O [Compound 667]
bedstraw; [27]
  Plant response rating, Bedstraw: 0
blackgrass; [27]
  Plant response rating, Blackgrass: 6
blackgrass; [10]
  Blackgrass plant response rating: 8
blackgrass; [28]
  Blackgrass plant response rating: 8
blackgrass; [11]
  Blackgrass plant response rating: 8
blackgrass; [5]
  Blackgrass plant response rating: 8
blackgrass; [29]
  Plant response rating, Blackgrass: 8
blackgrass; [18]
  Plant response rating, Blackgrass: 10
blackgrass; [30]
  Blackgrass plant response rating: 8
Surinam grass; [27]
  Plant response rating, B. signalgrass: 0
Surinam grass; [10]
  Plant response rating, B. signalgrass: 4
Surinam grass; [28]
  B. signalgrass plant response rating: 6
Surinam grass; [11]
  B. signalgrass plant response rating: 3
Surinam grass; [5]
  B. signalgrass plant response rating: 5
Surinam grass; [29]
  Plant response rating, B. signalgrass: 8
Surinam grass; [18]
  Plant response rating, B. signalgrass: 8
Surinam grass; [30]
  B. signalgrass plant response rating: 7
Smallflower flatsedge; [24]
  Plant response rating, S. Flatsedge (0 to 10 scale, 0 is no effect, 10 is complete control): 0
Smallflower flatsedge; [25]
  S. Flatsedge plant response rating (0 to 10 scale, 0 is no effect, 10 is complete control): 0
Smallflower flatsedge; [26]
  S. Flatsedge plant response rating: 0
Smallflower flatsedge; Rate 500 g/ha, Pre-emergence section of Table B, 0 to 10 scale (0 no effect, 10 complete control)
  S. Flatsedge plant response rating: 0

## CC(C)N(C(=O)n1oc(=O)[nH]c1=O)c1ccc(F)cc1F [Compound 391]
bedstraw; [2]
  Bedstraw plant response rating: 0
blackgrass; [31]
  Plant response rating, Blackgrass: 0
blackgrass; [2]
  Blackgrass plant response rating: 0
blackgrass; [4]
  Plant response rating, Blackgrass: 0
blackgrass; [5]
  Plant response rating, Blackgrass: 0
blackgrass; [17]
  Blackgrass plant response rating: 0
blackgrass; [18]
  Blackgrass plant response rating: 0
Surinam grass; Postemergence, Rate 125 g/ha, scale 0 to 10, 0 is no effect, 10 is complete control
  Plant response rating, B. signalgrass: 0
Surinam grass; [31]
  Plant response rating, B. signalgrass: 0
Surinam grass; [2]
  B. signalgrass plant response rating: 0
Surinam grass; [4]
  Plant response rating, B. signalgrass: 0
Surinam grass; [5]
  Plant response rating, B. signalgrass: 0
Surinam grass; [17]
  B. signalgrass plant response rating: 0
Surinam grass; [18]
  B. signalgrass plant response rating: 0
Surinam grass; [8]
  B. signalgrass plant response rating: 0
Smallflower flatsedge; [24]
  Plant response rating, S. Flatsedge (0 to 10 scale, 0 is no effect, 10 is complete control): 0
Smallflower flatsedge; [25]
  S. Flatsedge plant response rating (0 to 10 scale, 0 is no effect, 10 is complete control): 0
Smallflower flatsedge; [21]
  S. Flatsedge plant response rating: 0
Smallflower flatsedge; [22]
  S. Flatsedge plant response rating: 0
